Test [1] concerns the target PD-L1 His protein / PD-1 Fc protein (Homo sapiens (Human), UniProt Q9NZQ7). Nature of the test: HTRF Assay (PD-1/PD-L1 interaction). The settings on record: PD-L1 His 6 nM, PD-1 Fc 6 nM. Format: binding. (Time-resolved FRET reads energy transfer from a long-lived donor to a nearby acceptor.)
For a further test, the target named is human PD-L1 (Homo sapiens (Human), UniProt Q9NZQ7). Nature of the test: T cell activation luciferase reporter cell culture system (T Cell Activation Assay). Format: cell-based. The settings on record: luciferase reporter assay; PD-L1 aAPC/CHO-K1 cells with PD-1 effector Jurkat T cells. For orientation: A reporter such as luciferase makes a cellular process visible.
human PD-L1, sequence (Q9NZQ7 19-290): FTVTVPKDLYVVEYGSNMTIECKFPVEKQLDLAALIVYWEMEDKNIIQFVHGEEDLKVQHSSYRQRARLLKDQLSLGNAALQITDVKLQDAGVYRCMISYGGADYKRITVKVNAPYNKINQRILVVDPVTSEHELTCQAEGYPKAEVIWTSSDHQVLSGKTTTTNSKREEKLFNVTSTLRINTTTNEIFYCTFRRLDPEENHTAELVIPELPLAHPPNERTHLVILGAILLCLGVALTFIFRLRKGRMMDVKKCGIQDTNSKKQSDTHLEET

PD-L1 His protein / PD-1 Fc protein, sequence (Q9NZQ7 19-238): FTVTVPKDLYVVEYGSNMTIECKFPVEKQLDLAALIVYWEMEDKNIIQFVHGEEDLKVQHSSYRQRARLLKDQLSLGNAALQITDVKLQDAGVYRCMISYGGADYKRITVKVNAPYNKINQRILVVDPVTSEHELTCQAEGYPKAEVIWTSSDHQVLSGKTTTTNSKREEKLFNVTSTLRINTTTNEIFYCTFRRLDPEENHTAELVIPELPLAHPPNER

In the case of `COc1cc(-c2nccc(-c3cccc(-c4ccc(CN(C)C[C@H]5CNC(=O)C5)c(OC)n4)c3Cl)c2Cl)ccc1CN(C)C[C@H]1CNC(=O)C1` [Example 473, (R)-4-((((6-(2-Chloro-3-(3-chloro-2-(3-methoxy-4-((methyl(((R)-5-oxopyrrolidin-3-yl)methyl)amino)methyl)phenyl)pyridin-4-yl)phenyl)-2-methoxypyridin-3-yl)methyl)(methyl)amino)methyl)pyrrolidin-2-one], the IC50 (commonly the concentration needed to halve the response being measured) in test [1] worked out at 16.9 nM. In addition, the EC50 (usually the concentration at which the effect is half-maximal) at human PD-L1 is at least 10000 nM.
Turning to `COc1nc(-c2ccnc(-c3cccc(NC(=O)c4ccc(CNCCO)cn4)c3C)c2Cl)ccc1CNC1CCN(C(C)=O)CC1` [Example 769, N-(3-(5-(((1-Acetylpiperidin-4-yl)amino)methyl)-3′-chloro-6-methoxy-[2,4′-bipyridin]-2′-yl)-2-methylphenyl)-5-(((2-hydroxyethyl)amino)methyl)picolinamide], in test [1], 0.24 nM corresponded to half-maximal inhibition (IC50). Besides, at human PD-L1, the EC50 came out at 60.6 nM.
`COc1nc(-c2cccc(-c3ccnc(-c4ccc5c(CN(C)C6CCN(C(C)=O)CC6)nn(C)c5c4)c3Cl)c2Cl)ccc1CNC[C@@H]1CCC(=O)N1` [Compound 168, (S)-5-((((6-(3-(2-(3-(((1-acetylpiperidin-4-yl)(methyl)amino)methyl)-1-methyl-1H-indazol-6-yl)-3-chloropyridin-4-yl)-2-chlorophenyl)-2-methoxypyridin-3-yl)methyl)amino)methyl)pyridine1332ne-2-one] returned an IC50 in test [1] of 3.6 nM. Moreover, the EC50 at human PD-L1 stood at 12.5 nM.
Compound `COc1cc(-c2nccc(-c3cccc(-c4cc5c(cn4)C(=O)N(CCNC[C@@H]4CCC(=O)N4)C5)c3Cl)c2Cl)ccc1CNC[C@@H]1CCC(=O)N1` [Example 290, 6-(2-Chloro-3-(3-chloro-2-(3-methoxy-4-(((((S)-5-oxopyrrolidin-2-yl)methyl)amino)methyl)phenyl)pyridin-4-yl)phenyl)-2-(2-((((S)-5-oxopyrrolidin-2-yl)methyl)amino)ethyl)-1,2-dihydro-3H-pyrrolo[3,4-c]pyridin-3-one] had a half-maximal inhibitory concentration (IC50) in test [1] of 3.03 nM. This compound also had a 50% effective concentration (EC50) on human PD-L1 of 551 nM.
On to `COc1cc(-c2nccc(-c3ccnc(-c4ccc(CNC[C@@H]5CCC(=O)N5)c(OC)c4)c3Cl)c2Cl)ccc1CNC[C@@H]1CCC(=O)N1` [Compound 4, (5S,5′S)-5,5′-(((((3,3′-dichloro-[4,4′-bipyridine]-2,2′-diyl)bis(2-methoxy-4,1-phenylene))bis(methylene))bis(azanediyl))bis(methylene))bis(pyrrolidin-2-one)], for which the IC50 in test [1] turned out to be 8.3 nM. The compound also came in with an EC50 at human PD-L1 of 96.3 nM.
For `COc1cc(-c2nccc(-c3cccc(-c4ccc(CNCCCF)c(OC)n4)c3C(F)(F)F)c2Cl)ccc1CNCCCF` [Example 587, N-((6-(3-(3-Chloro-2-(4-(((3-fluoropropyl)amino)methyl)-3-methoxyphenyl)pyridin-4-yl)-2-(trifluoromethyl)phenyl)-2-methoxypyridin-3-yl)methyl)-3-fluoropropan-1-amine], in that order: 160 nM and at least 10000 nM.
For `COc1cc(-c2nccc(-c3ccnc(-c4cc5c(c(OC)c4)CN(C[C@@H]4CCC(=O)N4)CC5)c3Cl)c2Cl)cc2c1CN(C[C@@H]1CCC(=O)N1)CC2` [Compound 266, (5S,5'S)-5,5′-(((3,3′-Dichloro-[4,4′-bipyridine]-2,2′-diyl)bis(8-methoxy-3,4-dihydroisoquinoline-6,2(1H)-diyl))bis(methylene))bis(pyrrolidin-2-one)], in that order: 18.4 nM and 439 nM.
The like results for `COc1cc(-c2nccc(-c3cccc(-c4ccc(CNC5CCOCC5)c(OC)n4)c3Cl)c2C)ccc1CNC1CCOCC1` [Example 462, N-((6-(2-chloro-3-(2-(3-methoxy-4-(((tetrahydro-2H-pyran-4-yl)amino)methyl)phenyl)-3-methylpyridin-4-yl)phenyl)-2-methoxypyridin-3-yl)methyl)tetrahydro-2H-pyran-4-amine] were, in that order, 6.78 nM and 178 nM.
For the compound `COc1nc(-c2cccc(-c3ccnc(-c4ccc(CNC5CCN(C(C)=O)CC5)c(F)c4)c3Cl)c2Cl)ccc1CNC1CCN(C(C)=O)CC1` [Example 282, 1-(4-(((6-(3-(2-(4-(((1-Acetylpiperidin-4-yl)amino)methyl)-3-fluorophenyl)-3-chloropyridin-4-yl)-2-chlorophenyl)-2-methoxypyridin-3-yl)methyl)amino)piperidin-1-yl)ethan-1-one], the IC50 in test [1] came out at 1.56 nM. On human PD-L1, this compound gave an EC50 of 85.3 nM.
In turn, `COc1cc(-c2nccc(-c3cccc(-c4ccc(CNC[C@@H]5CCC(=O)N5)c(OC)n4)c3Cl)c2Cl)cc(F)c1CN1CC2(CC(O)C2)C1` [Compound 146, (S)-5-((((6-(2-chloro-3-(3-chloro-2-(3-fluoro-4-((6-hydroxy-2-azaspiro[3.3]heptan-2-yl)methyl)-5-methoxyphenyl)pyridin-4-yl)phenyl)-2-methoxypyridin-3-yl)methyl)amino)methyl)pyrrolidin-2-one] registered an IC50 in test [1] of 0.77 nM. A half-maximal effect on human PD-L1 (EC50) was put at 61.1 nM.
Take `COc1cc(-c2nccc(-c3cccc(-c4ccc(CNC5CN(C(C)=O)C5)c(OC)n4)c3Cl)c2Cl)ccc1CNC1CN(C(C)=O)C1` [Example 300, 1-(3-(((6-(3-(2-(4-(((1-Acetylazetidin-3-yl)amino)methyl)-3-methoxyphenyl)-3-chloropyridin-4-yl)-2-chlorophenyl)-2-methoxypyridin-3-yl)methyl)amino)azetidin-1-yl)ethan-1-one]: the IC50 in test [1] came to 0.87 nM. Besides, on human PD-L1, the EC50 stood at 282 nM.
Compound `COC(=O)[C@H](CCO)NCc1ncc(-c2nccc(-c3cccc(-c4ccc(CNC[C@@H]5CCC(=O)N5)c(OC)n4)c3Cl)c2Cl)cc1OC` [Compound 267, Methyl ((3-chloro-4-(2-chloro-3-(6-methoxy-5-(((((S)-5-oxopyrrolidin-2-yl)methyl)amino)methyl)pyridin-2-yl)phenyl)-5′-methoxy-[2,3′-bipyridin]-6′-yl)methyl)-L-homoserinate] had an IC50 in test [1] of 2.97 nM. The EC50 at human PD-L1 came to 639 nM.
Consider `COc1nc(-c2cccc(-c3ccnc(-c4ccc5c(CN6CC7(C6)CN(C(C)=O)C7)nn(C)c5c4)c3Cl)c2Cl)ccc1CNC[C@@H]1CCC(=O)N1` [Example 308, (S)-5-((((6-(3-(2-(3-((6-Acetyl-2,6-diazaspiro[3.3]heptan-2-yl)methyl)-1-methyl-1H-indazol-6-yl)-3-chloropyridin-4-yl)-2-chlorophenyl)-2-methoxypyridin-3-yl)methyl)amino)methyl)pyrrolidin-2-one], for which the midpoint of inhibition in test [1], the IC50, lay at 0.95 nM. The compound further gave an EC50 at human PD-L1 of 24.1 nM.
`COc1nc(-c2cccc(-c3nccc(-c4ccc(CNC5CCN(C(C)=O)CC5)c(OC)n4)c3Cl)c2Cl)ccc1CNC1CCN(C(C)=O)CC1` [Compound 572, 1-(4-(((6-(3-(5-(((1-Acetylpiperidin-4-yl)amino)methyl)-3′-chloro-6-methoxy-[2,4′-bipyridin]-2′-yl)-2-chlorophenyl)-2-methoxypyridin-3-yl)methyl)amino)piperidin-1-yl)ethan-1-one] returned an IC50 in test [1] of 0.19 nM. On human PD-L1, a half-maximal response (EC50) required 17.4 nM.
On to `COc1nc(-c2cccc(-c3ccnc(-c4ccc5c(c4)S(=O)(=O)CCN(C[C@@H]4CCC(=O)N4)C5)c3Cl)c2Cl)ccc1CNC[C@@H]1CCC(=O)N1` [Example 582, (S)-5-((((6-(2-Chloro-3-(3-chloro-2-(1,1-dioxido-4-(((S)-5-oxopyrrolidin-2-yl)methyl)-2,3,4,5-tetrahydrobenzo[f][1,4]thiazepin-8-yl)pyridin-4-yl)phenyl)-2-methoxypyridin-3-yl)methyl)amino)methyl)pyrrolidin-2-one], for which, in test [1], 1.58 nM corresponded to half-maximal inhibition (IC50). The EC50 at human PD-L1 stood at 1040 nM.
Take `COc1cc(-c2nccc(-c3cccc(NC(=O)c4ccc(CNCCO)cn4)c3Cl)c2Cl)ccc1CNCCO` [Example 676, N-(2-Chloro-3-(3-chloro-2-(4-(((2-hydroxyethyl)amino)methyl)-3-methoxyphenyl)pyridin-4-yl)phenyl)-5-(((2-hydroxyethyl)amino)methyl)picolinamide]: in test [1], the IC50 came out at 0.1 nM. Also, the EC50 on human PD-L1 is 37.3 nM.
For `COc1nc(-c2cccc(-c3ccnc(-c4ccc5c(CNCC(C)C)cn(C)c5c4)c3Cl)c2Cl)ccc1CNC[C@@H]1CCC(=O)N1` [Compound 38, (S)-5-((((6-(2-chloro-3-(3-chloro-2-(3-((isobutylamino)methyl)-1-methyl-1H-indol-6-yl)pyridin-4-yl)phenyl)-2-methoxypyridin-3-yl)methyl)amino)methyl)pyrrolidin-2-one], in that order: 116 nM and 369 nM.
Compound `COc1cc(-c2nccc(-c3cccc(-c4ccc(CNC[C@H](C)O)c(OC)n4)c3Cl)c2Cl)cc2c1CN(CCC(=O)O)CC2` [Example 293, (S)-3-(6-(3-Chloro-4-(2-chloro-3-(5-(((2-hydroxypropyl)amino)methyl)-6-methoxypyridin-2-yl)phenyl)pyridin-2-yl)-8-methoxy-3,4-dihydroisoquinolin-2(1H)-yl)propanoic acid] registered an IC50 in test [1] of 0.27 nM. This compound gave an EC50 on human PD-L1 of 60.5 nM.
In test [1], `COc1cc(-c2nccc(-c3cccc(NC(=O)c4ccc(CNCCO)cn4)c3C)c2Cl)ccc1CNC[C@@H]1CCC(=O)N1` [Example 735, (S)—N-(3-(3-Chloro-2-(3-methoxy-4-((((5-oxopyrrolidin-2-yl)methyl)amino)methyl)phenyl)pyridin-4-yl)-2-methylphenyl)-5-(((2-hydroxyethyl)amino)methyl)picolinamide] had an IC50 of 0.03 nM. On human PD-L1, this compound had an EC50 of 15.6 nM.
With `CNCc1ccc(-c2cccc(-c3ccnc(-c4cc(CNCCC(=O)O)cc(OC)c4)c3Cl)c2Cl)nc1OC` [Compound 170, 3-((3-(3-chloro-4-(2-chloro-3-(6-methoxy-5-((methylamino)methyl)pyridine-2-yl)phenyl)pyridine-2-yl)-5-methoxybenzyl)amino)propanoic acid], the IC50 in test [1] turned out to be 0.73 nM. This compound also gave an EC50 on human PD-L1 of 415 nM.

The values above are taken from patent US20240246964A1 (Arbutus Biopharma Corporation, priority 2021, published 2024).
